Measured values taken from patent US12145920B2, “Lanthionine c-like protein 2 ligands, cells prepared therewith, and therapies using same” (NImmune Biopharma, Inc., priority 2019, dated 2024).

Tests used:
[1] = target: T1, LANCL2 protein (Homo sapiens, UniProt Q9NS86); assay: Surface plasmon resonance binding to LANCL2 (Biacore T200); conditions: SPR, immobilized LANCL2, analyte 0-40 μM
T1 construct: made in house; host or cells: Pichia pastoris
T1 sequence (Q9NS86 1-450): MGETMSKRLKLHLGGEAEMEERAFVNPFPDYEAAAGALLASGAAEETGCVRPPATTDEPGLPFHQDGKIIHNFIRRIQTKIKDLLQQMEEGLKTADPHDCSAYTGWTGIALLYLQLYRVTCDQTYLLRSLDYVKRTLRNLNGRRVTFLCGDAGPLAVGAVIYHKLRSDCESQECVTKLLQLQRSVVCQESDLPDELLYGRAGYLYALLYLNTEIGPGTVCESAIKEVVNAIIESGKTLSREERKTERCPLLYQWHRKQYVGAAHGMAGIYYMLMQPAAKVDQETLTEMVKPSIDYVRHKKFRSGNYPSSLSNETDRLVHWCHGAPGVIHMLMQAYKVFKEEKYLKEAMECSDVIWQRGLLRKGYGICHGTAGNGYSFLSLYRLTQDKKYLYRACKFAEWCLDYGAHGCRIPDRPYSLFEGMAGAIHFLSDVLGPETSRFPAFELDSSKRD
Procedure: LANCL2 production and purification. LANCL2 was cloned into E. coli, amplified and transfected in Pichia pastoris. P. pastoris was plated onto adenine selective media. Stable transfected colonies were selected and grown within YPD broth at 30° C. for 24 hours, 240 RPM shaking. Starter culture was used to inoculate base media (1% yeast extract, 2% peptone, 1% sorbitol, 2% yeast nitrogen base) containing biotin and buffered with potassium phosphate. Inoculated base media was incubated for 48 hours at 30° C., 240 RPM. P. pastoris was then pelleted by centrifugation and resuspended in expression media (1% sorbitol, 2% yeast nitrogen base) containing biotin and buffered with potassium phosphate. Culture was induced daily for protein production through addition of methanol and incubated for a total of 4 days at 28° C., 240 RPM. After incubation, cells were pelleted by centrifugation and lysed by sonication. Recombinant LANCL2 protein was purified by fast protein liquid chromatography (AktaPrime) using immobilized metal affinity chromatography. Fractions of protein were eluted in 1 mL aliquots and evaluated for LANCL2 content.
Surface plasmon resonance. A Biacore T200 was used to evaluate binding to the LANCL2 protein. Protein was immobilized onto the CMS sensor chip. […] Based on the immobilized response values, theoretical Rmax values were calculated. […]

[2] = system: LANCL2 deficient CD4+ T cells; assay: Immune effects in CD4+ splenocytes, flow cytometry (LANCL2 deficient); assay type: cell-based, C57BL/6 mice; conditions: in the absence of LANCL2, 0.1, 1 and 10 μM
Text: Cell culture. Spleens were excised from C57BL/6 mice and assessed in wild-type and LANCL2 deficient states. Spleens were crushed between the frosted ends of microscope slides and filtered to provide a cellular suspension. Red blood cells were lysed through hypotonic lysis. Remaining cells were washed and filtered. CD4+ T cells were enriched within the suspension using magnetic sorting based negative selection. Cells were collected and plated within 96 well plates coated with anti-CD3 and cultured in the presence of BT-63 at 0, 0.1, 1 and 10 micromolar or BT-104A, BT-104B, or BT-104C at 0.1 micromolar for 48 h. During the last 6 h of culture, cells were stimulated with phorbol 12-myristate-13-acetate (PMA) and ionomycin.
Immunological analysis. Cells were collected from 96 well plates and stained with a cocktail of antibodies for immunophenotyping by flow cytometry. Culture supernatant was collected and assayed for cytokine concentrations by cytometric bead array. Data was captured on a BD FACS Celesta and analyzed using FacsDiva.

[3] = system: influenza A (H1N1); assay: Mouse model of influenza A virus infection; assay type: in vivo, C57BL/6 mice
Procedure: Mouse model. Eight- to ten-week old wild type C57BL/6 mice were anesthetized by isoflurane inhalation. Mice were infected with influenza A (H1N1) intranasally at a challenge titer of 350 pfu/mouse. Mice were treated daily with BT-63 at a dose of 20 mg/kg orally via gavage. Mice were weighed and scored daily over 12 days. Mice were euthanized at days 12 to measure immune responses by flow cytometry in the lungs.
Flow Cytometry. Lungs will be chopped into small pieces and collected into RPMI/FBS/CaCl2 buffer containing collagenase (300 U/mL) and DNase (50 U/mL) for digestion. Tissues will be digested for 60 to 90 minutes under stirring at 37° C. Resultant cellular suspensions will be filtered through 100 μm strainers, centrifuged (300×g, 8 min), and washed in fresh RPMI. Red blood cells will be lysed by hypotonic lysis and removed by filtration. Cells will be washed and plated for flow cytometry staining. Cells will be labeled with mixtures of extracellular (CD45, CD3, CD4, CD8, CD19, NK1.1, CD25, F4/80, CD11b, CD11c, Gr1, CX3CR1, CD64, SiglecF, Ly6C) and intracellular (Tbet, RORγT, FOXP3, IFNγ, IL6, IL10, IFNb) antibodies in a sequential live staining in 96-well plates. Data will be acquired using a FACS Celesta flow cytometer with FACSDiva software.

[4] = system: NZB/W F1 mice; assay: NZB/W F1 genetic mouse model of SLE (BT-63); assay type: in vivo
Procedure: NZB/W F 1 model. Twenty-four-week-old, female NZB/W F1 mice were randomized into vehicle or BT-63-treated arms based on baseline urine protein levels (n=10). BT-63 was orally administered daily at 20 mg/kg for 12 weeks. Mice were weighed on a weekly basis to update dosage formulation. Dosage was calculated based off mean body weights.
Immunological analysis. Blood was collected by cardiac puncture into EDTA tube. Plasma was separated following centrifugation and assayed by ELISA for anti-dsDNA antibodies and IFN-α. Urine was collected to assay for protein content to test for kidney function. Spleens were excised, crushed and filtered to provide a cellular suspension. Red blood cells were lysed. Cells were labeled with mixtures of extracellular (CD45, CD3, CD4, CD8, CD19, CD138, CD25, MHCII, CD11b, CD11c, CXCR3, IgD, IgM) and intracellular (BCL6, FOXP3, IL21, IL6, IL10) antibodies in a sequential live staining in 96-well plates in preparation for flow cytometry. Data was captured on a BD FACS Celesta and analyzed using FacsDiva.

[5] = lung, day 12 post-infection, 20 mg/kg
[6] = lungs, day 12 post-infection, 20 mg/kg
[7] = 36 weeks of age (12 weeks of treatment), 20 mg/kg
[8] = spleen, 12 weeks oral 20 mg/kg, relative to vehicle

SMILES: O=C(CN1CCN(C(=O)c2cccc(-c3nc4ccccc4[nH]3)n2)CC1)c1ccccc1 [BT-63, 2-(4-(6-(1H-benzo[d]imidazol-2-yl)picolinoyl)piperazin-1-yl)-1-phenylethanone]
- Kd [1]: 2740 nM
- effects on IFNγ+, TNFa+ and IL10+ FOXP3+ CD4+ T cells [2]: lost
- increase in survival compared to vehicle ([3]; 12 days post-infection, 20 mg/kg oral daily): over 50%
- disease activity index ([3]; day 3 through day 12 post-infection, 20 mg/kg oral vs vehicle): significantly reduces
- IL10+ CD8+ T cells [3, 5]: increases
- alveolar macrophages [3, 5]: increases
- proportions of TNFa+ CD4+ T cells [3, 6]: decreased
- proportions of neutrophils [3, 6]: decreased
- body weight change from baseline (weight loss) ([4]; 12 weeks oral 20 mg/kg): protected mice from weight loss
- proteinuria score ([4]; 12 weeks oral 20 mg/kg, from baseline): prevented worsening
- plasma IFN-α levels [4, 7]: reduced
- plasma anti-dsDNA levels [4, 7]: reduced
- CXCR3+ plasma cells ([4]; spleen, 12 weeks oral 20 mg/kg): moderate reduction
- follicular B cells ([4]; spleen, 12 weeks oral 20 mg/kg): moderate reduction
- plasma cells ([4]; spleen, 12 weeks oral 20 mg/kg): moderate reduction
- CD25+ FOXP3+ regulatory CD4+ T cells [4, 8]: greater reductions
- IL6+ myeloid cells [4, 8]: greater reductions
- IL21+ BCL6+ follicular helper T cells [4, 8]: greater reductions
